Test results published in PubChem BioAssay (NCI).
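Protocol summary: plate cells (96-well), add compound at 5 concentrations, incubate 48 h, interpolate endpoints linearly. TGI denotes the concentration required for complete inhibition of growth.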

Assays:
Assay in all cases: NCI-60 cell line screen, 48 h
[1] = tested on: SNB-75 CNS
[2] = tested on: SW-620 colon
[3] = tested on: MDA-MB-231 breast
[4] = tested on: MDA-N
[5] = tested on: CAKI-1 renal
[6] = tested on: HOP-62 NSCLC
[7] = tested on: NCI-H226 lung
[8] = tested on: SR leukemia
[9] = tested on: NCI-H23 lung
[10] = tested on: MALME-3M melanoma
[11] = tested on: CCRF-CEM leukemia
[12] = tested on: OVCAR-8 ovarian
[13] = tested on: A498 renal
[14] = tested on: OVCAR-3 ovarian
[15] = tested on: TK-10 renal
[16] = tested on: HS 578T breast
[17] = tested on: SK-MEL-2 melanoma
[18] = tested on: HT29 colon
[19] = tested on: SNB-19 CNS
[20] = tested on: HCT-116 colon
[21] = tested on: EKVX NSCLC
[22] = tested on: SK-MEL-5 melanoma
[23] = tested on: HCC-2998 colon
[24] = tested on: PC-3 prostate
[25] = tested on: SN12C renal
[26] = tested on: UACC-62 melanoma
[27] = tested on: HL-60(TB) leukemia
[28] = tested on: OVCAR-5 ovarian
[29] = tested on: IGROV1 ovarian
[30] = tested on: A549 NSCLC
[31] = tested on: OVCAR-4 ovarian
[32] = tested on: ACHN renal
[33] = tested on: RXF 393 renal
[34] = tested on: SF-295 CNS
[35] = tested on: MOLT-4 leukemia
[36] = tested on: KM12 colon
[37] = tested on: MCF7 breast
[38] = tested on: SF-268 CNS
[39] = tested on: NCI-H460 lung
[40] = tested on: 786-0 renal
[41] = tested on: U251 CNS
[42] = tested on: SK-MEL-28 melanoma
[43] = tested on: UACC-257 melanoma
[44] = tested on: SK-OV-3 ovarian
[45] = tested on: COLO 205 colon
[46] = tested on: UO-31 renal
[47] = tested on: K-562 leukemia
[48] = tested on: HOP-92 NSCLC
[49] = tested on: MDA-MB-435
[50] = tested on: M14 melanoma
[51] = tested on: LOX IMVI melanoma
[52] = tested on: NCI/ADR-RES ovarian
[53] = tested on: NCI-H522 lung
[54] = tested on: T-47D breast

Compound: CN(Cc1cc(Cl)c(Cl)cc1NC(=O)CN)[C@H]1CCCC[C@@H]1N1CCCC1
- TGI [1]: > 100 µM
- TGI [2]: > 100 µM
- TGI [3]: > 100 µM
- TGI [4]: 31.4 µM
- TGI [5]: > 100 µM
- TGI [6]: > 100 µM
- TGI [7]: > 100 µM
- TGI [8]: 49.9 µM
- TGI [9]: > 100 µM
- TGI [10]: 33.6 µM
- TGI [11]: > 100 µM
- TGI [12]: > 100 µM
- TGI [13]: 41.5 µM
- TGI [14]: > 100 µM
- TGI [15]: > 100 µM
- TGI [16]: 58.5 µM
- TGI [17]: 31.9 µM
- TGI [18]: 47.9 µM
- TGI [19]: > 100 µM
- TGI [20]: 45.2 µM
- TGI [21]: > 100 µM
- TGI [22]: 32.1 µM
- TGI [23]: 31.2 µM
- TGI [24]: > 100 µM
- TGI [25]: > 100 µM
- TGI [26]: 31.5 µM
- TGI [27]: > 100 µM
- TGI [28]: > 100 µM
- TGI [29]: > 100 µM
- TGI [30]: > 100 µM
- TGI [31]: > 100 µM
- TGI [32]: > 100 µM
- TGI [33]: > 100 µM
- TGI [34]: 36.6 µM
- TGI [35]: > 100 µM
- TGI [36]: > 100 µM
- TGI [37]: > 100 µM
- TGI [38]: > 100 µM
- TGI [39]: 57.8 µM
- TGI [40]: 33 µM
- TGI [41]: 18.8 µM
- TGI [42]: 41.5 µM
- TGI [43]: 31.7 µM
- TGI [44]: > 100 µM
- TGI [45]: 33.9 µM
- TGI [46]: > 100 µM
- TGI [47]: 35.9 µM
- TGI [48]: > 100 µM
- TGI [49]: 32.9 µM
- TGI [50]: 33.2 µM
- TGI [51]: 32.3 µM
- TGI [52]: > 100 µM
- TGI [53]: 40.4 µM
- TGI [54]: > 100 µM
